{"source": "patent US20230263822A1", "about": "“MODULATION OF FACTOR 11 EXPRESSION” (Ionis Pharmaceuticals, Inc., priority 2008, published 2023)", "note": "Strand notation (5' to 3'): a small letter for the sugar, then the base; units joined by * are phosphorothioate-linked, units joined directly phosphodiester-linked; [ ] holds rarer units or linkages, { } end groups; capitals alone tell only the bases. e = 2'-O-(2-methoxyethyl) (MOE); [5mC] = 5-methylcytosine; d = 2'-deoxy (DNA)", "data": [{"tested_on": "human Factor 11 mRNA", "assay": "Antisense inhibition of human Factor 11 in HepG2 cells by microwalk gapmers, lipofectin, 75 nM (Example 3)", "assay_type": "cell-based", "conditions": "HepG2, lipofectin, ~24 h, gapmers targeted to nucleobases 656 to 704 of SEQ ID NO: 1", "procedure": "(§1) These gapmers were designed by creating gapmers shifted slightly upstream and downstream (i.e. “microwalk”) of the original gapmers from Table 3. Gapmers were also created with various motifs, e.g. 5-10-5 MOE, 3-14-3 MOE, and 2-13-5 MOE. These gapmers were tested in vitro. Cultured HepG2 cells at a density of 10,000 cells per well were transfected using lipofectin reagent with 75 nM antisense oligonucleotide. After a treatment period of approximately 24 hours, RNA was isolated from the cells and Factor 11 mRNA levels were measured by quantitative real-time PCR. Factor 11 mRNA levels were adjusted according to total RNA content, as measured by RIBOGREEN. Results are presented as percent inhibition of Factor 11, relative to untreated control cells.\n(§2) The chimeric antisense oligonucleotides in Table 4 were designed as 5-10-5 MOE, 3-14-3 MOE, and 2-13-5 MOE gapmers. The first listed gapmers in Table 4 are the original gapmers (see Table 3) from which the remaining gapmers were designed via microwalk and are designated by an asterisk. The 5-10-5 gapmers are 20 nucleotides in length, wherein the central gap segment is comprised of 10 2′-deoxynucleotides and is flanked on both sides (in the 5′ and 3′ directions) by wings comprising 5 nucleotides each. The 3-14-3 gapmers are 20 nucleotides in length, wherein the central gap segment is comprised of 14 2′-deoxynucleotides and is flanked on both sides (in the 5′ and 3′ directions) by wings comprising 3 nucleotides each. The 2-13-5 gapmers are 20 nucleotides in length, wherein the central gap segment is comprised of 13 2′-deoxynucleotides. The central gap is flanked on the 5′ end with a wing comprising 2 nucleotides and on the 3′ end with a wing comprising 5 nucleotides. For each of the motifs (5-10-5, 3-14-3, and 2-13-5), each nucleotide in the 5′ wing segment and each nucleotide in the 3′ wing segment has a 2′-MOE modification. The internucleoside linkages throughout each gapmer are phosphorothioate (P=S) linkages. All cytidine residues throughout each gapmer are 5-methyl cytidines. “Target start site” indicates the 5′-most nucleotide to which the gapmer is targeted. “Target stop site” indicates the 3′-most nucleotide to which the gapmer is targeted. Each gapmer listed in Table 4 is targeted to SEQ ID NO: 1 (GENBANK Accession No. NM_000128.3).", "units": {"% inhibition": "%"}, "values": [{"substance": "416806 (antisense eA*eA*eA*eT*eG*dT*d[5mC]*dT*dT*dT*dG*dT*dT*dG*d[5mC]*eA*eA*eG*e[5mC]*eG) [compound 416806]", "% inhibition": 86}, {"substance": "416807 (antisense eT*eA*eA*eA*eT*dG*dT*d[5mC]*dT*dT*dT*dG*dT*dT*dG*e[5mC]*eA*eA*eG*e[5mC]) [compound 416807]", "% inhibition": 51}, {"substance": "416808 (antisense eA*eT*eA*eA*eA*dT*dG*dT*d[5mC]*dT*dT*dT*dG*dT*dT*eG*e[5mC]*eA*eA*eG) [compound 416808]", "% inhibition": 55}, {"substance": "416809 (antisense e[5mC]*eA*eT*eA*eA*dA*dT*dG*dT*d[5mC]*dT*dT*dT*dG*dT*eT*eG*e[5mC]*eA*eA) [compound 416809]", "% inhibition": 86}, {"substance": "416810 (antisense e[5mC]*eA*e[5mC]*eA*eT*dA*dA*dA*dT*dG*dT*d[5mC]*dT*dT*dT*eG*eT*eT*eG*e[5mC]) [compound 416810]", "% inhibition": 68}, {"substance": "416811 (antisense e[5mC]*e[5mC]*eA*e[5mC]*eA*dT*dA*dA*dA*dT*dG*dT*d[5mC]*dT*dT*eT*eG*eT*eT*eG) [compound 416811]", "% inhibition": 84}, {"substance": "416812 (antisense eT*e[5mC]*e[5mC]*eA*e[5mC]*dA*dT*dA*dA*dA*dT*dG*dT*d[5mC]*dT*eT*eT*eG*eT*eT) [compound 416812]", "% inhibition": 59}, {"substance": "416813 (antisense eG*eT*e[5mC]*e[5mC]*eA*d[5mC]*dA*dT*dA*dA*dA*dT*dG*dT*d[5mC]*eT*eT*eT*eG*eT) [compound 416813]", "% inhibition": 70}, {"substance": "416814 (antisense eA*eG*eG*eT*e[5mC]*d[5mC]*dA*d[5mC]*dA*dT*dA*dA*dA*dT*dG*eT*e[5mC]*eT*eT*eT) [compound 416814]", "% inhibition": 83}, {"substance": "416815 (antisense eT*eA*eG*eG*eT*d[5mC]*d[5mC]*dA*d[5mC]*dA*dT*dA*dA*dA*dT*eG*eT*e[5mC]*eT*eT) [compound 416815]", "% inhibition": 63}, {"substance": "416816 (antisense e[5mC]*eT*eA*eG*eG*dT*d[5mC]*d[5mC]*dA*d[5mC]*dA*dT*dA*dA*dA*eT*eG*eT*e[5mC]*eT) [compound 416816]", "% inhibition": 79}, {"substance": "416817 (antisense eT*e[5mC]*eT*eA*eG*dG*dT*d[5mC]*d[5mC]*dA*d[5mC]*dA*dT*dA*dA*eA*eT*eG*eT*e[5mC]) [compound 416817]", "% inhibition": 74}, {"substance": "416818 (antisense eT*eG*eT*e[5mC]*eT*dA*dG*dG*dT*d[5mC]*d[5mC]*dA*d[5mC]*dA*dT*eA*eA*eA*eT*eG) [compound 416818]", "% inhibition": 76}, {"substance": "416819 (antisense eA*eT*eG*eT*e[5mC]*dT*dA*dG*dG*dT*d[5mC]*d[5mC]*dA*d[5mC]*dA*eT*eA*eA*eA*eT) [compound 416819]", "% inhibition": 56}, {"substance": "416820 (antisense e[5mC]*eA*eT*eG*eT*d[5mC]*dT*dA*dG*dG*dT*d[5mC]*d[5mC]*dA*d[5mC]*eA*eT*eA*eA*eA) [compound 416820]", "% inhibition": 77}, {"substance": "416821 (antisense eT*e[5mC]*eA*eT*eG*dT*d[5mC]*dT*dA*dG*dG*dT*d[5mC]*d[5mC]*dA*e[5mC]*eA*eT*eA*eA) [compound 416821]", "% inhibition": 84}, {"substance": "416822 (antisense e[5mC]*eT*eT*e[5mC]*eA*dT*dG*dT*d[5mC]*dT*dA*dG*dG*dT*d[5mC]*e[5mC]*eA*e[5mC]*eA*eT) [compound 416822]", "% inhibition": 76}, {"substance": "416823 (antisense e[5mC]*e[5mC]*eT*eT*e[5mC]*dA*dT*dG*dT*d[5mC]*dT*dA*dG*dG*dT*e[5mC]*e[5mC]*eA*e[5mC]*eA) [compound 416823]", "% inhibition": 77}, {"substance": "416824 (antisense e[5mC]*e[5mC]*e[5mC]*eT*eT*d[5mC]*dA*dT*dG*dT*d[5mC]*dT*dA*dG*dG*eT*e[5mC]*e[5mC]*eA*e[5mC]) [compound 416824]", "% inhibition": 64}, {"substance": "416828 (antisense eT*eT*eA*eT*eG*d[5mC]*d[5mC]*d[5mC]*dT*dT*d[5mC]*dA*dT*dG*dT*e[5mC]*eT*eA*eG*eG) [compound 416828]", "% inhibition": 87}, {"substance": "416829 (antisense eT*eT*eT*eA*eT*dG*d[5mC]*d[5mC]*d[5mC]*dT*dT*d[5mC]*dA*dT*dG*eT*e[5mC]*eT*eA*eG) [compound 416829]", "% inhibition": 72}, {"substance": "416868 (antisense eA*eA*eT*dG*dT*d[5mC]*dT*dT*dT*dG*dT*dT*dG*d[5mC]*dA*dA*dG*e[5mC]*eG*e[5mC]) [compound 416868]", "% inhibition": 93}, {"substance": "416869 (antisense eA*eA*eA*dT*dG*dT*d[5mC]*dT*dT*dT*dG*dT*dT*dG*d[5mC]*dA*dA*eG*e[5mC]*eG) [compound 416869]", "% inhibition": 81}, {"substance": "416870 (antisense eT*eA*eA*dA*dT*dG*dT*d[5mC]*dT*dT*dT*dG*dT*dT*dG*d[5mC]*dA*eA*eG*e[5mC]) [compound 416870]", "% inhibition": 76}, {"substance": "416871 (antisense eA*eT*eA*dA*dA*dT*dG*dT*d[5mC]*dT*dT*dT*dG*dT*dT*dG*d[5mC]*eA*eA*eG) [compound 416871]", "% inhibition": 28}, {"substance": "416872 (antisense e[5mC]*eA*eT*dA*dA*dA*dT*dG*dT*d[5mC]*dT*dT*dT*dG*dT*dT*dG*e[5mC]*eA*eA) [compound 416872]", "% inhibition": 20}]}, {"tested_on": "human Factor 11 mRNA", "assay": "Antisense inhibition of human Factor 11 in HepG2 cells by microwalk gapmers, lipofectin, 75 nM (Example 3)", "assay_type": "cell-based", "conditions": "HepG2 cells, lipofectin, gapmers targeted to nucleobases 738 to 762 of SEQ ID NO: 1", "procedure": "as §1, §2", "units": {"% inhibition": "%"}, "values": [{"substance": "416830 (antisense eT*e[5mC]*e[5mC]*eG*eT*dG*d[5mC]*dA*dT*d[5mC]*dT*dT*dT*d[5mC]*dT*eT*eG*eG*e[5mC]*eA) [compound 416830]", "% inhibition": 81}, {"substance": "416831 (antisense eA*eT*e[5mC]*e[5mC]*eG*dT*dG*d[5mC]*dA*dT*d[5mC]*dT*dT*dT*d[5mC]*eT*eT*eG*eG*e[5mC]) [compound 416831]", "% inhibition": 91}, {"substance": "416832 (antisense e[5mC]*eA*eT*e[5mC]*e[5mC]*dG*dT*dG*d[5mC]*dA*dT*d[5mC]*dT*dT*dT*e[5mC]*eT*eT*eG*eG) [compound 416832]", "% inhibition": 79}, {"substance": "416833 (antisense eT*e[5mC]*eA*eT*e[5mC]*d[5mC]*dG*dT*dG*d[5mC]*dA*dT*d[5mC]*dT*dT*eT*e[5mC]*eT*eT*eG) [compound 416833]", "% inhibition": 65}, {"substance": "416834 (antisense eG*eT*e[5mC]*eA*eT*d[5mC]*d[5mC]*dG*dT*dG*d[5mC]*dA*dT*d[5mC]*dT*eT*eT*e[5mC]*eT*eT) [compound 416834]", "% inhibition": 58}]}, {"tested_on": "human Factor 11 mRNA", "assay": "Antisense inhibition of human Factor 11 in HepG2 cells by microwalk gapmers, lipofectin, 75 nM (Example 3)", "assay_type": "cell-based", "conditions": "HepG2 cells, lipofectin, gapmers targeted to nucleobases 1018 to 1042 of SEQ ID NO: 1", "procedure": "as §1, §2", "units": {"% inhibition": "%"}, "values": [{"substance": "416835 (antisense eA*e[5mC]*e[5mC]*eG*eG*dG*dA*dT*dG*dA*dT*dG*dA*dG*dT*eG*e[5mC]*eA*eG*eA) [compound 416835]", "% inhibition": 83}, {"substance": "416836 (antisense eA*eA*e[5mC]*e[5mC]*eG*dG*dG*dA*dT*dG*dA*dT*dG*dA*dG*eT*eG*e[5mC]*eA*eG) [compound 416836]", "% inhibition": 89}, {"substance": "416837 (antisense e[5mC]*eA*eA*e[5mC]*e[5mC]*dG*dG*dG*dA*dT*dG*dA*dT*dG*dA*eG*eT*eG*e[5mC]*eA) [compound 416837]", "% inhibition": 90}]}, {"tested_on": "human Factor 11 mRNA", "assay": "Antisense inhibition of human Factor 11 in HepG2 cells by microwalk gapmers, lipofectin, 75 nM (Example 3)", "assay_type": "cell-based", "conditions": "HepG2 cells, lipofectin, gapmers targeted to nucleobases 1062 to 1091 of SEQ ID NO: 1", "procedure": "as §1, §2", "units": {"% inhibition": "%"}, "values": [{"substance": "416839 (antisense eG*eA*eT*eT*e[5mC]*dT*dT*dT*dG*dG*dG*d[5mC]*d[5mC]*dA*dT*eT*e[5mC]*e[5mC]*eT*eG) [compound 416839]", "% inhibition": 89}, {"substance": "416840 (antisense eA*eG*eA*eT*eT*d[5mC]*dT*dT*dT*dG*dG*dG*d[5mC]*d[5mC]*dA*eT*eT*e[5mC]*e[5mC]*eT) [compound 416840]", "% inhibition": 85}, {"substance": "416841 (antisense eG*eA*eG*eA*eT*dT*d[5mC]*dT*dT*dT*dG*dG*dG*d[5mC]*d[5mC]*eA*eT*eT*e[5mC]*e[5mC]) [compound 416841]", "% inhibition": 87}, {"substance": "416843 (antisense eT*eT*eT*eG*eA*dG*dA*dT*dT*d[5mC]*dT*dT*dT*dG*dG*eG*e[5mC]*e[5mC]*eA*eT) [compound 416843]", "% inhibition": 89}, {"substance": "416844 (antisense e[5mC]*eT*eT*eT*eG*dA*dG*dA*dT*dT*d[5mC]*dT*dT*dT*dG*eG*eG*e[5mC]*e[5mC]*eA) [compound 416844]", "% inhibition": 90}, {"substance": "416845 (antisense eT*e[5mC]*eT*eT*eT*dG*dA*dG*dA*dT*dT*d[5mC]*dT*dT*dT*eG*eG*eG*e[5mC]*e[5mC]) [compound 416845]", "% inhibition": 86}, {"substance": "416846 (antisense eT*eT*e[5mC]*eT*eT*dT*dG*dA*dG*dA*dT*dT*d[5mC]*dT*dT*eT*eG*eG*eG*e[5mC]) [compound 416846]", "% inhibition": 72}, {"substance": "416847 (antisense eT*eT*eT*e[5mC]*eT*dT*dT*dG*dA*dG*dA*dT*dT*d[5mC]*dT*eT*eT*eG*eG*eG) [compound 416847]", "% inhibition": 50}]}]}
